Common to all, as to type: cell-based
The target of assay [1] is T1, Protein cereblon/Inactive tyrosine-protein kinase transmembrane receptor ROR1 (Homo sapiens) (UniProt Q96SW2+Q01973). In words: PROTAC activity at CRBN/ROR1 in human NCI-H23 cells assessed as induction of ROR1 degradation at 0.1 uM incubated for 24 hrs by Western blot analysis relative to control.
Assay [2] concerns the target T1, Protein cereblon/Inactive tyrosine-protein kinase transmembrane receptor ROR1 (Homo sapiens). Kind of assay: PROTAC activity at CRBN/ROR1 in human NCI-H23 cells assessed as induction of ROR1 degradation at 1 uM incubated for 24 hrs by Western blot analysis relative to control. (In general: In western blotting, separated proteins are transferred to a membrane and probed.)

The target in assay [3] is T2, von Hippel-Lindau disease tumor suppressor/Inactive tyrosine-protein kinase transmembrane receptor ROR1 (Homo sapiens, UniProt P40337+Q01973). In words: PROTAC activity at VHL/ROR1 in human NCI-H23 cells assessed as induction of ROR1 degradation at 0.1 uM incubated for 24 hrs by Western blot analysis relative to control.
T2 sequence (P40337 whole entry): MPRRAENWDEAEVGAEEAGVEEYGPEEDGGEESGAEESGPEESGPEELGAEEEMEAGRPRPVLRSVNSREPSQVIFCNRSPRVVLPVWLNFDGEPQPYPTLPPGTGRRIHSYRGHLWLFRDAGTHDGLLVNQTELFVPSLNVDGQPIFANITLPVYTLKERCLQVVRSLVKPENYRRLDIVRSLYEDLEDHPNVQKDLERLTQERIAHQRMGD
T2 sequence (Q01973 30-937 partner limits assumed): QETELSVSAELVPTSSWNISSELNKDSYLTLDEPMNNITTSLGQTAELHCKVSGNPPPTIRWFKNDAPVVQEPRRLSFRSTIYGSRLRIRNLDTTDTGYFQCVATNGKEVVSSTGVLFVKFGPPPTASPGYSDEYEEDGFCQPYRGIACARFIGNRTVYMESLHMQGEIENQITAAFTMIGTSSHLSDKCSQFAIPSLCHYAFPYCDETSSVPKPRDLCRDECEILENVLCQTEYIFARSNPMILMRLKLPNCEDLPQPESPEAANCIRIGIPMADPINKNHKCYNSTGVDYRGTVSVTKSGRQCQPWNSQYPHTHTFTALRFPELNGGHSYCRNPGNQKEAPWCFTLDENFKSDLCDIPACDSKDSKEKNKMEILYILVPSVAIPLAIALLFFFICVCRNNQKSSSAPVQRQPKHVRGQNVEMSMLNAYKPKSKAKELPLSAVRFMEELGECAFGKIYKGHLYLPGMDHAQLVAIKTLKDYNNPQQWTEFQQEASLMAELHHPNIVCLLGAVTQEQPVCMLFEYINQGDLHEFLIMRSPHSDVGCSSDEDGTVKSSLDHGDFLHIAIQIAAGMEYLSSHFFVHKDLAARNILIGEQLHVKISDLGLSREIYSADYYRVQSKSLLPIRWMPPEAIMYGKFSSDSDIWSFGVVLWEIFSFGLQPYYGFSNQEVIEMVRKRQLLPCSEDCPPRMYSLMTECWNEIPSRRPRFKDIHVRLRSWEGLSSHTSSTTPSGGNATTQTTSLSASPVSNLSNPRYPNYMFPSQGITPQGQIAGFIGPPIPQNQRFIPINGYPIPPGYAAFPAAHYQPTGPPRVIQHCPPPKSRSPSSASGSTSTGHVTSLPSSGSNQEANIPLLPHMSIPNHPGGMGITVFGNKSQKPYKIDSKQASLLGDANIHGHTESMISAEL
Assay [4] deals with T2, von Hippel-Lindau disease tumor suppressor/Inactive tyrosine-protein kinase transmembrane receptor ROR1. In words: PROTAC activity at VHL/ROR1 in human NCI-H23 cells assessed as induction of ROR1 degradation at 1 uM incubated for 24 hrs by Western blot analysis relative to control.

T1 sequence (Q01973 whole entry, looked up): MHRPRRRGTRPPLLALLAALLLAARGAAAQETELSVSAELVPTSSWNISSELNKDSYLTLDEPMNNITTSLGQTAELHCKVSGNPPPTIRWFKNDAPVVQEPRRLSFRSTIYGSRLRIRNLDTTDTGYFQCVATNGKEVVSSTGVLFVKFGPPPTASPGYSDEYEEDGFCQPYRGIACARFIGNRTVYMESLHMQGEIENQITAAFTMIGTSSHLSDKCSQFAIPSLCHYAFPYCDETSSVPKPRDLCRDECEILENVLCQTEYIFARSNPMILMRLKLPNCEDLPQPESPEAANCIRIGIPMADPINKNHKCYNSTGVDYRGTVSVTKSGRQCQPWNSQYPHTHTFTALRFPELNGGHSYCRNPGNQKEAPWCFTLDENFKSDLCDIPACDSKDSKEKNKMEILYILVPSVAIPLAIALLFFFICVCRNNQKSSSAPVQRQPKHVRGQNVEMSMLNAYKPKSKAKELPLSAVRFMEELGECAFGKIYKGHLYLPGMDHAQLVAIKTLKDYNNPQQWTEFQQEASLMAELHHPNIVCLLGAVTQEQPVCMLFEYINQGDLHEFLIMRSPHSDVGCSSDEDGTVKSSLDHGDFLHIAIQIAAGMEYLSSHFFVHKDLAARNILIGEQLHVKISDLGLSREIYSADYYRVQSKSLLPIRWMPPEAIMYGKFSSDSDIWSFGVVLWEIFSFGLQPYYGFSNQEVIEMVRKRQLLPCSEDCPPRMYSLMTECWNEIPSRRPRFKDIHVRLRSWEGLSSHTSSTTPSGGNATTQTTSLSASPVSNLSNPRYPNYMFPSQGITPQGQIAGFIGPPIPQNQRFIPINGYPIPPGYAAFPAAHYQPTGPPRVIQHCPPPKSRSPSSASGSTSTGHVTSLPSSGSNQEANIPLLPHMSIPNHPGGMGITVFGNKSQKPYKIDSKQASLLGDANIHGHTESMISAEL
T1 sequence (Q96SW2 whole entry, looked up): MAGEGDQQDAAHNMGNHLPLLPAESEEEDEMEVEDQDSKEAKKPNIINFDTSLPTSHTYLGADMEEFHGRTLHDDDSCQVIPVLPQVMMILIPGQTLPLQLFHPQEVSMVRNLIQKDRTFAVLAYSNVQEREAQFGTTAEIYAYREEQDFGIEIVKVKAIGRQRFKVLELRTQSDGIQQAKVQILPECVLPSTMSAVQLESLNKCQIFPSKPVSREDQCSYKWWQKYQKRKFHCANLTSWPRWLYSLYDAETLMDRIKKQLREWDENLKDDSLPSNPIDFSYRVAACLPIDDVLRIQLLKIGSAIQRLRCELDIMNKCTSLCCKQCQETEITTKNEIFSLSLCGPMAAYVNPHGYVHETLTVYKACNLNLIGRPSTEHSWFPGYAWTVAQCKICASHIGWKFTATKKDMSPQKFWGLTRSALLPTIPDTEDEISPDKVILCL

`CCN1CCC(Nc2c(Br)cnc3[nH]c(-c4ccc(N5CCN(CCOCCOCCNc6cccc7c6C(=O)N(C6CCC(=O)NC6=O)C7=O)CC5)cc4)nc23)CC1` (stereo not drawn): the Activity in assay [1] is 11.1%; in assay [2], 89.6%.

For the compound `CCN1CCC(Nc2c(Br)cnc3[nH]c(-c4ccc(N5CCN(C(=O)CCCNc6cccc7c6C(=O)N(C6CCC(=O)NC6=O)C7=O)CC5)cc4)nc23)CC1` (stereo not drawn), the Activity was 6.6% in assay [1] and 76% in assay [2].

As for `CCN1CCC(Nc2c(Br)cnc3[nH]c(-c4ccc(N5CCN(C(=O)CCCOc6cccc7c6C(=O)N(C6CCC(=O)NC6=O)C7=O)CC5)cc4)nc23)CC1` (stereo not drawn), the Activity in assay [1] was 0%; in assay [2], 50.6%.

In the case of `CCN1CCC(Nc2c(Br)cnc3[nH]c(-c4ccc(N5CCN(C(=O)CCCCCCCCCNc6ccc7c(c6)C(=O)N(C6CCC(=O)NC6=O)C7=O)CC5)cc4)nc23)CC1` (stereo not drawn), the Activity in assay [1] was 1.6%; in assay [2], 0%.

As for `CCN1CCC(Nc2c(Br)cnc3[nH]c(-c4ccc(N5CCN(C(=O)CCCCCOc6ccc7c(c6)C(=O)N(C6CCC(=O)NC6=O)C7=O)CC5)cc4)nc23)CC1` (stereo not drawn), the Activity in assay [1] and in assay [2] was 0% throughout.

On to `CCN1CCC(Nc2c(Br)cnc3[nH]c(-c4ccc(N5CCN(CCCCCCCCCC(=O)N[C@H](C(=O)N6C[C@H](O)C[C@H]6C(=O)NCc6ccc(-c7scnc7C)cc6)C(C)(C)C)CC5)cc4)nc23)CC1`, for which the figures for the Activity in assay [3] and in assay [4] were 28.1% and 88.4%, respectively.

With `CCN1CCC(Nc2c(Br)cnc3[nH]c(-c4ccc(N5CCN(CCOCCOCCOCCNc6ccc7c(c6)C(=O)N(C6CCC(=O)NC6=O)C7=O)CC5)cc4)nc23)CC1` (stereo not drawn), the Activity was found to be 0% in assay [1] and 73.5% in assay [2].

`CCN1CCC(Nc2c(Br)cnc3[nH]c(-c4ccc(N5CCN(C(=O)CCCCCNc6ccc7c(c6)C(=O)N(C6CCC(=O)NC6=O)C7=O)CC5)cc4)nc23)CC1` (stereo not drawn): the Activity amounted to 35.5% in assay [1] and 87.2% in assay [2].

Take `CCN1CCC(Nc2c(Br)cnc3[nH]c(-c4ccc(N5CCN(C(=O)CCCCCCCCCOc6ccc7c(c6)C(=O)N(C6CCC(=O)NC6=O)C7=O)CC5)cc4)nc23)CC1` (stereo not drawn): the Activity in assay [1] worked out at 0%; in assay [2] it was 60.5%.

Turning to `CCN1CCC(Nc2c(Br)cnc3[nH]c(-c4ccc(N5CCN(CCCNc6ccc7c(c6)C(=O)N(C6CCC(=O)NC6=O)C7=O)CC5)cc4)nc23)CC1` (stereo not drawn), the Activity in assay [1] came to 23.2%; in assay [2] it was 97.4%.

In the case of `CCN1CCC(Nc2c(Br)cnc3[nH]c(-c4ccc(N5CCN(C(=O)CCCCCCCCCCC(=O)N[C@H](C(=O)N6C[C@H](O)C[C@H]6C(=O)NCc6ccc(-c7scnc7C)cc6)C(C)(C)C)CC5)cc4)nc23)CC1`, the Activity stood at 85.1% in assay [3] and 99.7% in assay [4].

Regarding `CCN1CCC(Nc2c(Br)cnc3[nH]c(-c4ccc(N5CCN(C(=O)CNc6ccc7c(c6)C(=O)N(C6CCC(=O)NC6=O)C7=O)CC5)cc4)nc23)CC1` (stereo not drawn), the Activity came to 0.8% in assay [1] and 71% in assay [2].

In the case of `CCN1CCC(Nc2c(Br)cnc3[nH]c(-c4ccc(N5CCN(C(=O)COc6ccc7c(c6)C(=O)N(C6CCC(=O)NC6=O)C7=O)CC5)cc4)nc23)CC1` (stereo not drawn), the Activity in assay [1] and in assay [2] was 0% throughout.

Regarding `CCN1CCC(Nc2c(Br)cnc3[nH]c(-c4ccc(N5CCN(CC(=O)N[C@H](C(=O)N6C[C@H](O)C[C@H]6C(=O)NCc6ccc(-c7scnc7C)cc6)C(C)(C)C)CC5)cc4)nc23)CC1`, the results for the Activity in assay [3] and in assay [4] were 10.2% and 46.2%, respectively.

Regarding `CCN1CCC(Nc2c(Br)cnc3[nH]c(-c4ccc(N5CCN(C(=O)CCCCCCCCCNc6cccc7c6C(=O)N(C6CCC(=O)NC6=O)C7=O)CC5)cc4)nc23)CC1` (stereo not drawn), the Activity stood at 6.7% in assay [1] and 57.5% in assay [2].

In the case of `CCN1CCC(Nc2c(Br)cnc3[nH]c(-c4ccc(N5CCN(CCNc6ccc7c(c6)C(=O)N(C6CCC(=O)NC6=O)C7=O)CC5)cc4)nc23)CC1` (stereo not drawn), the Activity in assay [1] was determined as 3.2%; in assay [2] it was 92.7%.

Take `CCN1CCC(Nc2c(Br)cnc3[nH]c(-c4ccc(N5CCN(C(=O)CCCCCCCOc6ccc7c(c6)C(=O)N(C6CCC(=O)NC6=O)C7=O)CC5)cc4)nc23)CC1` (stereo not drawn): the Activity in assay [1] and in assay [2] was 0% in each case.

Turning to `CCN1CCC(Nc2c(Br)cnc3[nH]c(-c4ccc(N5CCN(CCCNc6cccc7c6C(=O)N(C6CCC(=O)NC6=O)C7=O)CC5)cc4)nc23)CC1` (stereo not drawn), the Activity in assay [1] came to 76.1%; in assay [2], 99.7%.

As for `CCN1CCC(Nc2c(Br)cnc3[nH]c(-c4ccc(N5CCN(C(=O)CCCCCCCNc6cccc7c6C(=O)N(C6CCC(=O)NC6=O)C7=O)CC5)cc4)nc23)CC1` (stereo not drawn), the Activity in assay [1] turned out to be 1.2%; in assay [2], 75.3%.

On to `CCN1CCC(Nc2c(Br)cnc3[nH]c(-c4ccc(N5CCN(C(=O)CCCCC(=O)N[C@H](C(=O)N6C[C@H](O)C[C@H]6C(=O)NCc6ccc(-c7scnc7C)cc6)C(C)(C)C)CC5)cc4)nc23)CC1`, for which the Activity in assay [3] stood at 12.9%; in assay [4], 35.3%.

`CCN1CCC(Nc2c(Br)cnc3[nH]c(-c4ccc(N5CCN(CCOCCOCCNc6ccc7c(c6)C(=O)N(C6CCC(=O)NC6=O)C7=O)CC5)cc4)nc23)CC1` (stereo not drawn): the Activity in assay [1] is 0%; in assay [2], 88.7%.

`CCN1CCC(Nc2c(Br)cnc3[nH]c(-c4ccc(N5CCN(C(=O)CCCCCCCCCOc6cccc7c6C(=O)N(C6CCC(=O)NC6=O)C7=O)CC5)cc4)nc23)CC1` (stereo not drawn): the figures for the Activity in assay [1] and in assay [2] were 38.7% and 99.6%, respectively.

For the compound `CCN1CCC(Nc2c(Br)cnc3[nH]c(-c4ccc(N5CCN(CCOCCOCCOCCNc6cccc7c6C(=O)N(C6CCC(=O)NC6=O)C7=O)CC5)cc4)nc23)CC1` (stereo not drawn), the Activity was determined as 30.4% in assay [1] and 93.8% in assay [2].

Take `CCN1CCC(Nc2c(Br)cnc3[nH]c(-c4ccc(N5CCN(C(=O)CCCCCCCNc6ccc7c(c6)C(=O)N(C6CCC(=O)NC6=O)C7=O)CC5)cc4)nc23)CC1` (stereo not drawn): the values for the Activity in assay [1] and in assay [2] were 30.5% and 73.3%, respectively.

Take `CCN1CCC(Nc2c(Br)cnc3[nH]c(-c4ccc(N5CCN(CCCCCCNc6ccc7c(c6)C(=O)N(C6CCC(=O)NC6=O)C7=O)CC5)cc4)nc23)CC1` (stereo not drawn): the Activity in assay [1] amounted to 37.6%; in assay [2], 89.9%.

In the case of `CCN1CCC(Nc2c(Br)cnc3[nH]c(-c4ccc(N5CCN(C(=O)CNc6cccc7c6C(=O)N(C6CCC(=O)NC6=O)C7=O)CC5)cc4)nc23)CC1` (stereo not drawn), the values for the Activity in assay [1] and in assay [2] were 0% and 83.3%, respectively.

Turning to `CCN1CCC(Nc2c(Br)cnc3[nH]c(-c4ccc(N5CCN(CCNc6cccc7c6C(=O)N(C6CCC(=O)NC6=O)C7=O)CC5)cc4)nc23)CC1` (stereo not drawn), the Activity in assay [1] came to 69.7%; in assay [2], 99.3%.

With `CCN1CCC(Nc2c(Br)cnc3[nH]c(-c4ccc(N5CCN(CCCCCC(=O)N[C@H](C(=O)N6C[C@H](O)C[C@H]6C(=O)NCc6ccc(-c7scnc7C)cc6)C(C)(C)C)CC5)cc4)nc23)CC1`, the Activity in assay [3] is 29.3%; in assay [4], 78.5%.

As for `CCN1CCC(Nc2c(Br)cnc3[nH]c(-c4ccc(N5CCN(C(=O)CCCCCNc6cccc7c6C(=O)N(C6CCC(=O)NC6=O)C7=O)CC5)cc4)nc23)CC1` (stereo not drawn), the values for the Activity in assay [1] and in assay [2] were 6.2% and 75.8%, respectively.

On to `CCN1CCC(Nc2c(Br)cnc3[nH]c(-c4ccc(N5CCN(C(=O)CCCOc6ccc7c(c6)C(=O)N(C6CCC(=O)NC6=O)C7=O)CC5)cc4)nc23)CC1` (stereo not drawn), for which the Activity in assay [1] came to 0%; in assay [2], 87.3%.

On to `CCN1CCC(Nc2c(Br)cnc3[nH]c(-c4ccc(N5CCN(CCCC(=O)N[C@H](C(=O)N6C[C@H](O)C[C@H]6C(=O)NCc6ccc(-c7scnc7C)cc6)C(C)(C)C)CC5)cc4)nc23)CC1`, for which the Activity stood at 22.6% in assay [3] and 23.6% in assay [4].

As to `CCN1CCC(Nc2c(Br)cnc3[nH]c(-c4ccc(N5CCN(C(=O)CCC(=O)N[C@H](C(=O)N6C[C@H](O)C[C@H]6C(=O)NCc6ccc(-c7scnc7C)cc6)C(C)(C)C)CC5)cc4)nc23)CC1`, the Activity in assay [3] stood at 32.5%; in assay [4], 85.8%.

As to `CCN1CCC(Nc2c(Br)cnc3[nH]c(-c4ccc(N5CCN(CCCCCCNc6cccc7c6C(=O)N(C6CCC(=O)NC6=O)C7=O)CC5)cc4)nc23)CC1` (stereo not drawn), the Activity in assay [1] was found to be 6.1%; in assay [2] it was 96.5%.

Turning to `CCN1CCC(Nc2c(Br)cnc3[nH]c(-c4ccc(N5CCN(C(=O)CCCCCCC(=O)N[C@H](C(=O)N6C[C@H](O)C[C@H]6C(=O)NCc6ccc(-c7scnc7C)cc6)C(C)(C)C)CC5)cc4)nc23)CC1`, the Activity in assay [3] turned out to be 36.5%; in assay [4] it was 84.1%.

On to `CCN1CCC(Nc2c(Br)cnc3[nH]c(-c4ccc(N5CCN(C(=O)COc6cccc7c6C(=O)N(C6CCC(=O)NC6=O)C7=O)CC5)cc4)nc23)CC1` (stereo not drawn), for which the Activity is 38% in assay [1] and 88.9% in assay [2].

For `CCN1CCC(Nc2c(Br)cnc3[nH]c(-c4ccc(N5CCN(C(=O)CCCCCCCOc6cccc7c6C(=O)N(C6CCC(=O)NC6=O)C7=O)CC5)cc4)nc23)CC1` (stereo not drawn), the Activity worked out at 9.5% in assay [1] and 0% in assay [2].

As to `CCN1CCC(Nc2c(Br)cnc3[nH]c(-c4ccc(N5CCN(C(=O)CCCNc6ccc7c(c6)C(=O)N(C6CCC(=O)NC6=O)C7=O)CC5)cc4)nc23)CC1` (stereo not drawn), the values for the Activity in assay [1] and in assay [2] were 11% and 46.8%, respectively.

As to `CCN1CCC(Nc2c(Br)cnc3[nH]c(-c4ccc(N5CCN(C(=O)CCCCCOc6cccc7c6C(=O)N(C6CCC(=O)NC6=O)C7=O)CC5)cc4)nc23)CC1` (stereo not drawn), the Activity in assay [1] and in assay [2] was 0% in each case.

With `CCN1CCC(Nc2c(Br)cnc3[nH]c(-c4ccc(N5CCN(CCCCCCCC(=O)N[C@H](C(=O)N6C[C@H](O)C[C@H]6C(=O)NCc6ccc(-c7scnc7C)cc6)C(C)(C)C)CC5)cc4)nc23)CC1`, the results for the Activity in assay [3] and in assay [4] were 52.5% and 99.6%, respectively.

The values above are taken from ChEMBL document CHEMBL6153104, “Discovery of the first potent ROR1 degrader for the treatment of non-small cell lung cancer” (Eur J Med Chem, 2025).
